We go through five compounds from patent US20210346331A1, “TRPV4 ACTIVITY INHIBITOR” (KAO CORPORATION, priority 2018, published 2021).

In this experiment the target is T1, human TRPV4 (Homo sapiens, UniProt Q9HBA0).
T1 construct: expressed in transfected cells; host or cells: HeLa cells, transient transfection with pcDNA3.1 Directional TOPO vector
Description: Measurement of intracellular calcium ion influx activity in human TRPV4 expressing cells (HeLa, Fluo4) stimulated with TRPV4 agonist GSK1016790a. The format is cell-based. The note with it: for Intracellular Ca^2+ influx rate (%): GSK + solvent = 100%, human TRPV4 expressing HeLa cells, n = 3, Mean ± S.E.; for calcium ion influx caused by the TRPV4 agonist (result in words): summary of Table 1, Dunnett's test vs GSK1016790a + solvent. As to the method:
Polymerase chain reaction (PCR) was performed under the following conditions using a primer set comprising the oligonucleotides represented by the following base sequences which were synthesized with reference to published human TRPV4 gene sequences using a cDNA obtained by reverse-transcribing a totalRNA extracted from the Hutu-80 cell, as a template.
The obtained PCR product was purified using the High Pure PCR Product Purification Kit. The human TRPV4 gene expression vector was produced using the purified PCR product and the pcDNA3.1 Directional TOPO Expression Kit.
The HeLa cell was cultured using the DMEM/F12 medium containing 10% of fetal bovine serum. The HeLa cell was seeded in a T-75 cell culture flask at 5×10^5 cells/Flask. After three days of culture, the human TRPV4 gene expression vector (8 μg) produced in the above (2) was transfected into the cell using the TransIT-HeLaMONSTER Transfection Kit and cultured for 1 day.
The cell was detached using the Detachin and seeded at a density of 1.5×10^4 cells/90 μL/well in the DMEM/F12 medium containing 10% of fetal bovine serum on the 96 well Optical bottom plate and cultured for further 1 day.
Measurement of the intracellular calcium ion influx activity was performed using the Calcium Kit II—fluo 4. After the Loading buffer containing the Fluo4-AM and the Hanks' balanced salt solution were mixed at a ratio of 1:1, 180 μL/well of the mixture was added to the human TRPV4 expressing cell produced in the above (3) and incubated at 37° C. for 1 hour. Thereafter, fluorescence intensity (excitation wavelength: 488 nm, fluorescence wavelength: 524 nm) was measured using a fluorescent plate reader FDSS3000 (Hamamatsu Photonics K.K.) at 37° C. every 2 seconds. The GSK1016790a which is the TRPV4 agonist and each of the 4,3′-di-O-methyl-rosmarinic acid, 3′,4′-di-O-methyl-rosmarinic acid, 4,4′-di-O-methyl-rosmarinic acid, and 3,4-di-O-methyl-rosmarinic acid solution prepared in Production Examples as samples were diluted with the Hanks' balanced salt solution, 20 μL/well of the mixed solution thereof (they were mixed just before the addition) was added to the cell after 30 seconds after the start of the measurement, and the change of the fluorescence intensity was measured every 2 seconds until 300 seconds. The GSK1016790a was added so as to have a final concentration of 3 nM.
As a positive control of the TRPV4 activity inhibition, HC067047, which is the TRPV4 antagonist, was added to the cell in a final concentration of 10 μM.
The TRPV4 activity of the samples was calculated by the following equation, assuming that the influx rate of calcium ions by the treatment of the GSK1016790a, which is the TRPV4 agonist, is 100%.
Influx rate of calcium ions (%)=[(Fmax/F0)−(FmaxC2/F0C2)]/[(FmaxC1/FOC1)−(FmaxC2/F0C2)]×100 (Expression 1)
Fmax: The maximum fluorescence intensity of the well to which the GSK1016790a and a sample were added, at from 0 to 300 seconds after the start of the measurement
FmaxC1: The maximum fluorescence intensity of the well to which the GSK1016790a and a solvent were added, at from 0 to 300 seconds after the start of the measurement
FmaxC2: The maximum fluorescence intensity of the well to which only a solvent was added, at from 0 to 300 seconds after the start of the measurement
F0: The fluorescence intensity of the same well as Fmax, immediately after the start of the measurement
F0C1: The fluorescence intensity of the same well as FmaxC1, immediately after the start of the measurement
F0C2: The fluorescence intensity of the well to which only a solvent was added, immediately after the start of the measurement
The influx rates of calcium ions (n=3 for each group) in the case of adding samples were tested using the Dunnett's test by comparing with the case of adding the GSK1016790a+a solvent. […] The results were presented as the average value (Mean)±standard error (S.E.).

Setting [1] is: sample 30 μM + GSK1016790a 3 nM.
Where [2] appears, read: sample 100 μM + GSK1016790a 3 nM.

T1 sequence (Q9HBA0 whole entry): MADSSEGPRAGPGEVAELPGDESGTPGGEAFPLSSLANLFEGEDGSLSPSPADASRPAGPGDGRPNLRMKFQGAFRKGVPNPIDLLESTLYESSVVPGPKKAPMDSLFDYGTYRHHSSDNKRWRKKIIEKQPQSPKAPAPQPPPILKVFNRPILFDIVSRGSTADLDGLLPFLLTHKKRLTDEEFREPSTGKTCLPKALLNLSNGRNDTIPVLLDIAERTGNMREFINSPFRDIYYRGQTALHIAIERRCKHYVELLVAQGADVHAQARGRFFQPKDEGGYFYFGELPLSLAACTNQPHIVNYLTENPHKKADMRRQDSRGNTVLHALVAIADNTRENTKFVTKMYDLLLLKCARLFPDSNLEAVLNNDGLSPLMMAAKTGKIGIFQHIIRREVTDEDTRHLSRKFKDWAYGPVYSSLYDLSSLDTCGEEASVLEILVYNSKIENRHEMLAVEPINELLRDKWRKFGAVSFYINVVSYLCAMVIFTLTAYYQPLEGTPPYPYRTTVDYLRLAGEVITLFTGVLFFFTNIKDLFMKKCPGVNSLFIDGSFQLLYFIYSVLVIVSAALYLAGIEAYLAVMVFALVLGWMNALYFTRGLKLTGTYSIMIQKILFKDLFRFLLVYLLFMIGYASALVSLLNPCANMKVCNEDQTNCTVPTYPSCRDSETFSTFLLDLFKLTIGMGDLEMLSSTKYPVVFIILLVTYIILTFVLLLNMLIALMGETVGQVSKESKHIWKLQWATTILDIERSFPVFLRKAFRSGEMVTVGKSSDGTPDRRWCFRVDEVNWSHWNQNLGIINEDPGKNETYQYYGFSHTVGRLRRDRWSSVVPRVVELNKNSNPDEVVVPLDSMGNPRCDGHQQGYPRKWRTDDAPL

As for `COc1ccc(CC(OC(=O)/C=C/c2ccc(O)c(O)c2)C(=O)O)cc1OC` (stereo not shown) [3,4-DiMe-RA, (E)-3-(3,4-dimethoxyphenyl)-2-{[3-(3,4-dihydroxyphenyl)acryloyl]oxy}propionic acid], the “calcium ion influx caused by the TRPV4 agonist (result in words)” value (“calcium ion influx caused” for short) is reported as “significantly reduced the calcium ion influx”. For the same compound, under setting [1], the “Intracellular Ca^2+ influx rate (%)” value is reported as 80.66 ± 1.58 (P < 0.01) %. In addition, under setting [2], the “Intracellular Ca^2+ influx rate (%)” value is reported as 78.99 ± 3.27 (P < 0.01) %.

`COc1ccc(/C=C/C(=O)OC(Cc2ccc(O)c(O)c2)C(=O)O)cc1OC` (stereo not shown) [3′,4′-DiMe-RA, (E)-3-(3,4-dihydroxyphenyl)-2-{[3-(3,4-dimethoxyphenyl)acryloyl]oxy}propionic acid]: the “calcium ion influx caused” value is “significantly reduced the calcium ion influx”. Under setting [1], the “Intracellular Ca^2+ influx rate (%)” value is reported as 78.81 ± 3.67 (P < 0.01) %. For the same compound, the “Intracellular Ca^2+ influx rate (%)” value under setting [2] is given as 81.74 ± 1.18 (P < 0.01) %.

With `COc1ccc(CC(OC(=O)/C=C/c2ccc(O)c(OC)c2)C(=O)O)cc1O` (stereo not shown) [4,3′-DiMe-RA, (E)-3-(3-hydroxy-4-methoxyphenyl)-2-{[3-(4-hydroxy-3-methoxyphenyl)acryloyl]oxy}propionic acid], the “calcium ion influx caused” value is “significantly reduced the calcium ion influx”. The “Intracellular Ca^2+ influx rate (%)” value under setting [1] is listed as 85.31 ± 8.14 (P < 0.05) %. Moreover, under setting [2], the “Intracellular Ca^2+ influx rate (%)” value is reported as 81.02 ± 1.18 (P < 0.01) %.

For the compound `COc1ccc(/C=C/C(=O)OC(Cc2ccc(OC)c(O)c2)C(=O)O)cc1O` (stereo not shown) [4,4′-DiMe-RA, (E)-3-(3-hydroxy-4-methoxyphenyl)-2-{[3-(3-hydroxy-4-methoxyphenyl)acryloyl]oxy}propionic acid], the “calcium ion influx caused” value is on record as “significantly reduced the calcium ion influx”. For the same compound, the “Intracellular Ca^2+ influx rate (%)” value under setting [1] is 83.19 ± 4.69 (P < 0.05) %. Besides, the “Intracellular Ca^2+ influx rate (%)” value under setting [2] is listed as 75.87 ± 3.39 (P < 0.001) %.

`Cc1c(C(=O)Nc2cccc(C(F)(F)F)c2)cc(-c2ccccc2)n1CCCN1CCOCC1` [HC067047, reference compound]: the “Intracellular Ca^2+ influx rate (%)” value (sample 10 μM + GSK1016790a 3 nM) is reported as 0.63 ± 0.14 (P < 0.001) %.
